Test results reported in PMC3411462, “Long-acting κ opioid antagonists nor-BNI, GNTI and JDTic: pharmacokinetics in mice and lipophilicity” (BMC Pharmacology, 2012).
Several values for one entry are separate records, joined by “and”; a condition that tells them apart may be missing. Equal entries are not always repeated. Where two headings read alike, the source gives them in different places.

Test: Brain and plasma concentrations in mice after intraperitoneal administration (LC-MS-MS), non-compartmental analysis
Format: in vivo
Settings: for [drug],brain (free base equivalent) / [drug],plasma (free base equivalent): listed as nor-BNI.2HCl.H2O; for [drug],brain (free base equivalent) / [drug],plasma (free base equivalent) / AUC(0-inf) / concentration at 0.5 h / concentration at 1 h / concentration at 2 h: 10 mg/kg
Description: Doses are reported by weight of the specified salt. […] Body mass was measured to ±0.1 g.
Mice were sacrificed by cervical dislocation, then decapitated for collection of brain and blood samples. Trunk blood was collected in 1.5 mL polypropylene micro-centrifuge tubes, shaken with a few crystals of EDTA and cooled in ice-water. Samples were centrifuged at 14,000 rpm (revolutions per minute) for 15 minutes at 3 °C, then stored in glass sample vials at −20 °C until analysis. Brains were removed and immersed for 30 seconds in 2-methylbutane over dry ice, then stored in polypropylene tubes at −20 °C until sample preparation. Sample tubes were thawed in ice-water, distilled water was added (2:1 by weight) and the brain homogenized with a probe sonicator for 3 minutes over ice-water (Fisher Sonic Dismembrator 300 at 35% power). The probe was rinsed with ethanol and distilled water between samples. Brain homogenate was stored in glass sample vials at −20 °C until analysis by LC-MS-MS.
Drug concentrations (ng mL^-1) refer to the free base, and were measured by liquid chromatography-tandem mass spectrometry (LC-MS-MS) as described previously. Briefly, samples were shaken with 3 volumes of methanol and centrifuged at 3000 g. Aliquots of the supernatants were diluted with 5 volumes of water containing an appropriate internal standard. Extracts from in vitro and in vivo experiments were analyzed by multiple reaction monitoring on an API3000 or API4000 LC-MS-MS system with electrospray ion source, controlled and analyzed using the Analyst software package (Applied Biosystems, Foster City, CA). Chromatography was conducted on a Sprite Armor C18 analytical column (20 × 2.1 mm, 10 μm particle size, Analytical Sales and Products, Pompton Plains, NJ) with a 0.5 μm PEEK guard filter. Compounds were eluted with a gradient from 2% to 95% acetonitrile in water, both containing 0.1% formic acid. Compounds were detected in positive ion mode, tuned to the mass transition with the largest intensity. Analyte concentrations were determined by comparison of analyte:internal standard peak area ratios to those of standards prepared in the appropriate matrices.
For calculation of mean concentrations, the earliest values below the MRC were substituted by MRC ÷ 2, as recommended elswhere. Pharmacokinetic parameters were calculated from mean concentrations using PKSolver, employing non-compartmental analysis for extravascular administration. Curves in figures were fitted using Origin 8.5 (OriginLab, Northampton, MA) using 2-compartment models. Confidence intervals and two-tailed p values (unpaired t test) were calculated using Graphpad Quickcalcs. One outlier was identified using Grubbs' test (p < 0.01) and excluded from the analysis; see Additional file 1.

[1] = 0.5 h, 10 mg/kg i.p., individual mice
[2] = 1 h, 10 mg/kg i.p., individual mice
[3] = 2 h, 10 mg/kg i.p., individual mice
[4] = male, Swiss-Webster, mouse, ip, brain NCA, 10 mg/kg i.p.

What does the source list for `Oc1ccc2c3c1O[C@H]1c4[nH]c5c(c4C[C@@]4(O)[C@@H](C2)N(CC2CC2)CC[C@]314)C[C@@]1(O)[C@H]2Cc3ccc(O)c4c3[C@@]1(CCN2CC1CC1)[C@H]5O4` [nor-BNI, norbinaltorphimine]?
Time of maximal mean plasma level (10 mg kg^-1 i.p., mice): 30 min; [drug],brain (free base equivalent) [1]: 477 ng/g and 471 ng/g and 309 ng/g and 609 ng/g and 438 ng/g; [drug],plasma (free base equivalent) [1]: 6130 ng/mL and 4810 ng/mL and 2110 ng/mL and 3050 ng/mL; [drug],brain (free base equivalent) [2]: 250 ng/g and 396 ng/g and 299 ng/g and 372 ng/g and 207 ng/g; [drug],plasma (free base equivalent) [2]: 3060 ng/mL and 2060 ng/mL and 1510 ng/mL and 1140 ng/mL and 1170 ng/mL; [drug],brain (free base equivalent) [3]: <120 ng/g; [drug],plasma (free base equivalent) [3]: 343 ng/mL and 309 ng/mL; [drug],plasma (free base equivalent) (4 h, 10 mg/kg i.p., individual mice): 173 ng/mL and 156 ng/mL; [drug],plasma (free base equivalent) (24 h, 10 mg/kg i.p., individual mice): 63 ng/mL and 50 ng/mL and 14 ng/mL; Peak unbound brain level (at 30 minutes, 10 mg kg^-1 i.p., estimate): ≤ 26 nM; AUMC 0-inf_obs (brain NCA, 10 mg/kg i.p.): 712.925 ng/ml*h^2; Tlag (brain NCA, 10 mg/kg i.p.): 0 h; C max,brain (brain, 10 mg kg^-1 i.p., mice): 443 ng/mL; AUC(0-inf) (male, Swiss-Webster (Crl:CFW(SW)), mouse, brain, ip, brain NCA, 10 mg/kg i.p., read-out: AUC 0-inf_obs): 593 ng·h/mL; Kp uu (male, Swiss-Webster (Crl:CFW(SW)), mouse, brain/plasma (unbound), ip, supplement, 10 mg/kg i.p., read-out: Kp,uu,brain (AUC0–∞,brain,u / AUC0–∞,p,u)): < 0.00725; Kp (male, Swiss-Webster (Crl:CFW(SW)), mouse, brain/plasma, ip, supplement, 10 mg/kg i.p., read-out: Kp,brain (AUC0–∞,brain / AUC0–∞,p)): 0.0924; MRT inf (male, Swiss-Webster (Crl:CFW(SW)), mouse, ip, brain NCA, 10 mg/kg i.p., read-out: MRT 0-inf_obs): 72.1 min; Kp uu (male, Swiss-Webster, mouse, brain and plasma (unbound), ip, 10 mg kg^-1 i.p., mice, read-out: Cmax,brain,u/Cmax,p,u): < 0.009; Kp uu (male, Swiss-Webster, mouse, brain and plasma (unbound), ip, 10 mg kg^-1 i.p., mice, read-out: K p,uu,brain (AUC0–∞,brain,u/AUC0–∞,p,u)): < 0.007; Kp (male, Swiss-Webster, mouse, brain and plasma, ip, 10 mg kg^-1 i.p., mice, read-out: Cmax,brain/Cmax,p): 0.11; Kp (male, Swiss-Webster, mouse, brain and plasma, ip, 10 mg kg^-1 i.p., mice, read-out: K p,brain (AUC0–∞,brain/AUC0–∞,p)): 0.09; concentration at 0.5 h (male, Swiss-Webster, mouse, brain, intraperitoneal, 0.5 h, read-out: Conc (brain, NCA input)): 443 ng/mL; concentration at 1 h (male, Swiss-Webster, mouse, brain, intraperitoneal, 1 h, read-out: Conc (brain, NCA input)): 308 ng/mL; concentration at 2 h (male, Swiss-Webster, mouse, brain, intraperitoneal, 2 h, read-out: Conc (brain, NCA input)): 96.3 ng/mL; concentration at 0.5 h (male, Swiss-Webster, mouse, brain, ip, 0.5 h, 10 mg/kg i.p., individual mice, read-out: [drug],brain (free base equivalent)): 354 ng/g; concentration at 0.5 h (male, Swiss-Webster, mouse, brain, ip, 0.5 h, 10 mg/kg i.p., read-out: mean (brain)): 443 ng/g; concentration at 1 h (male, Swiss-Webster, mouse, brain, ip, 1 h, 10 mg/kg i.p., individual mice, read-out: [drug],brain (free base equivalent)): 324 ng/g; concentration at 1 h (male, Swiss-Webster, mouse, brain, ip, 1 h, 10 mg/kg i.p., read-out: mean (brain)): 308 ng/g; concentration at 2 h (male, Swiss-Webster, mouse, brain, ip, 2 h, 10 mg/kg i.p., individual mice, read-out: [drug],brain (free base equivalent)): 169 ng/g; concentration at 2 h (male, Swiss-Webster, mouse, brain, ip, 2 h, 10 mg/kg i.p., <MRC substituted by MRC/2, read-out: mean (brain)): 96 ng/g; AUC(0-inf) (male, Swiss-Webster, mouse, brain, ip, brain, 10 mg kg^-1 i.p., non-compartmental analysis, read-out: AUC 0–∞,brain): 593 ng·h/mL; Tmax (male, Swiss-Webster, mouse, in vivo, ip, ·2HCl salts, 10 mg kg^-1 i.p., mice): 30 min; AUC(0-t) [4]: 501 ng·h/mL; Tmax [4]: 30 min; Cmax (male, Swiss-Webster, mouse, ip, brain NCA, 10 mg/kg i.p., read-out: Cmax): 443 ng/mL; k el (male, Swiss-Webster, mouse, ip, brain NCA, 10 mg/kg i.p., read-out: Lambda_z (converted)): 0.000288 s⁻¹; half-life (male, Swiss-Webster, mouse, ip, brain NCA, 10 mg/kg i.p., read-out: t1/2 (converted)): 40.1 min
